Where “and” joins values, the source holds several entries; their conditions need not be identical. Equal entries are not always repeated.
Biological target: T1, PAF receptor (specific receptor binding site on rabbit platelet plasma membranes) (Oryctolagus cuniculus, UniProt G1TEI7)
T1 construct: 100 μg of the platelet plasma membrane suspension; from tissue; host or cells: rabbit platelet plasma membranes
Experiment: inhibition of 3H-PAF binding to rabbit platelet plasma membrane
Conditions: Table (A), 3H-PAF, pH 7.5, 0° C.
Description: They inhibit in vitro PAF-induced functions in both the cellular and tissue levels by changing the PAF binding to its specific receptor site. This ability to inhibit the PAF binding to its specific receptor binding site on rabbit platelet plasma membranes was measured by an assay recently developed by us.
The inhibition of H^3 -PAF binding to the rabbit platelet plasma membrane by a PAF antagonist of Formula (I) was determined by isotopic labeling and filtration techniques. Generally, a series of Tris-buffered solutions of the selected antagonist at predetermined concentrations were prepared. Each of these solutions contains 1 pmole of ^3 H-PAF, a known amount of the test antagonist, and a sufficient amount of the pH 7.5 Tris-buffer solution (10 mM Tris, 0.25% bovine serum albumin, and 150 mM NaCl per ml water) to make the final volume of 1 ml. After adding into a set of test tubes each with 100 μg of the platelet plasma membrane suspension (S. B. Hwang, et al., Biochemistry, Vol. 22, pp. 4756-4763, 1983) and one of the Tris-buffer solutions described above, the resulting mixture in each test tube was incubated at 0° C. for about one hour or until the reaction was complete. Two control samples, one of which (C1) contains all the ingredients described above except the antagonist and the other (C 2) contains C1 plus a 1000-fold excess of unlabeled PAF, were also prepared and incubated simultaneously with the test samples. After the incubation was completed, the contents of each test tube were filtered under vacuo through a Whatman GF/C fiberglass filter and the residue washed rapidly several times with a total of 20 ml cold (0°-5° C.) Tris-buffer solution. Each washed residue was then suspended in 10 ml scintillation solution (Aquasol 2, New England Nuclear, Conn.) and the radioactivity was counted in a Packard Tri-Carb 460CD Liquid Scintillation System. Defining the counts from a test sample as "Total binding with antagonist"; the counts from the control sample C1, as "Total binding C1 "; and the counts from the control sample C2 as "non-specific binding C2 ", the percent inhibition of each test antagonist can be determined by the following equation: [formula]

T1 sequence (G1TEI7 1-342): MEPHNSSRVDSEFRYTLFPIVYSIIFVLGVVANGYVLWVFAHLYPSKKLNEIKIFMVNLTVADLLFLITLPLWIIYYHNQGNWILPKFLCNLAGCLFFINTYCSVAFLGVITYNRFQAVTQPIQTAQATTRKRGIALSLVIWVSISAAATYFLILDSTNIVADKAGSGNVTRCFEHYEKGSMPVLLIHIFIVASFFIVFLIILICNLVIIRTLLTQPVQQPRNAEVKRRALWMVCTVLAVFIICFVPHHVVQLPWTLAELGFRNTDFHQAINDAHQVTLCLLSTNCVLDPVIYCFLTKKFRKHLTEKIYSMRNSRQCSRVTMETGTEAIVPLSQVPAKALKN

Q: How did the IC50 turn out when `C#CCOC1[C@H](c2cc(OC)c(OC)c(OC)c2)CC[C@H]1c1cc(OC)c(OC)c(OC)c1` (relative stereo) was run?
A: 1 nM

Q: Which IC50 does the source give for `CCOC(=O)COC1[C@H](c2cc(OC)c(OC)c(OC)c2)CC[C@H]1c1cc(OC)c(OC)c(OC)c1` (relative stereo) here?
A: 3.6 nM

Q: How did the IC50 turn out when `C=CCOC1[C@H](c2cc(OC)c(OC)c(OC)c2)CC[C@H]1c1cc(OC)c(OC)c(OC)c1` (relative stereo) was run?
A: 4.8 nM

Q: How did the IC50 turn out when `COc1cc([C@@H]2CC[C@@H](c3cc(OC)c(OC)c(OC)c3)C2OCC2CC2)cc(OC)c1OC` (relative stereo) was run?
A: 19 nM

Q: Which IC50 does the source give for `CCOC1[C@H](c2cc(OC)c(OC)c(OC)c2)CC[C@H]1c1cc(OC)c(OC)c(OC)c1` (relative stereo) here?
A: 30 nM

Q: For `CCCOC1[C@H](c2cc(OC)c(OC)c(OC)c2)CC[C@H]1c1cc(OC)c(OC)c(OC)c1` (relative stereo), which IC50 is on record?
A: 30 nM

Q: Which IC50 does the source give for `COCCOC1[C@H](c2cc(OC)c(OC)c(OC)c2)CC[C@H]1c1cc(OC)c(OC)c(OC)c1` (relative stereo) here?
A: 100 nM

Q: How did the IC50 turn out when `COc1cc([C@@H]2CC[C@@H](c3cc(OC)c(OC)c(OC)c3)C2OCCN(C)C)cc(OC)c1OC` (relative stereo) was run?
A: 100 nM

Q: How did the IC50 turn out when `COc1cc([C@@H]2CC[C@@H](c3cc(OC)c(OC)c(OC)c3)C2)cc(OC)c1OC` (relative stereo) [H, 1α,3β-bis(3,4,5-trimethoxyphenyl)cyclopentane] was run?
A: 20 nM

Q: How did the IC50 turn out when `CON=C1[C@@H](c2cc(OC)c(OC)c(OC)c2)CC[C@@H]1c1cc(OC)c(OC)c(OC)c1` (relative stereo) [NOCH3, Trans-2,5-bis(3,4,5-trimethoxyphenyl)cyclopentanone-O-methyloxime] was run?
A: 5 nM

Q: `COc1cc([C@H]2CC[C@H](c3cc(OC)c(OC)c(OC)c3)C2=NO)cc(OC)c1OC` (relative stereo) [NOH, trans-2,5-bis(3,4,5-trimethoxyphenyl)cyclopentanone oxime] was tested. Which IC50 did it give?
A: 5.8 nM

Q: With `COc1cc([C@@H]2CC[C@@H](c3cc(OC)c(OC)c(OC)c3)C2OCc2ccccc2)cc(OC)c1OC` (relative stereo) [OCH2 C6 H5] as the compound, how does the IC50 read?
A: 48 nM

Q: `COc1cc([C@@H]2CC[C@@H](c3cc(OC)c(OC)c(OC)c3)C2OC)cc(OC)c1OC` (relative stereo) [OCH3, 1α-Methoxy-2α,5β-bis-(3,4,5-trimethoxyphenyl)cyclopentane] was tested. Which IC50 did it give?
A: 8.3 nM

Q: With `COc1cc([C@@H]2CC[C@@H](c3cc(OC)c(OC)c(OC)c3)C2OC(C)=O)cc(OC)c1OC` (relative stereo) [OCOCH3, 1α-acetoxy-2α,5β-bis(3,4,5-trimethoxypheny)cyclopentane] as the compound, how does the IC50 read?
A: 100 nM

Same assay, conditions: Table (A), at 300 nM, read-out: PAF Receptor Binding Inhibition, Percent Inhibition

Q: With `COc1cc([C@@H]2CC[C@@H](c3cc(OC)c(OC)c(OC)c3)C2OCC(=O)N(C)C)cc(OC)c1OC` (relative stereo) as the compound, how does the inhibition at 0.3 µM read?
A: 23%

Q: How did the inhibition at 0.3 µM turn out when `COc1cc([C@@H]2CC[C@@H](c3cc(OC)c(OC)c(OC)c3)C2OCC(=O)O)cc(OC)c1OC` (relative stereo) was run?
A: 16%

Same assay, conditions: Table (A), at 500 nM, read-out: PAF Receptor Binding Inhibition, Percent Inhibition

Q: With `COc1cc([C@@H]2CC[C@@H](c3cc(OC)c(OC)c(OC)c3)C2O)cc(OC)c1OC` (relative stereo) [OH, trans-2,5-bis(3,4,5-trimethoxyphenyl)cyclopentanol] as the compound, how does the inhibition at 0.5 µM read?
A: 84%

Same assay, conditions: Table (B), 3H-PAF, pH 7.5, 0° C.

Q: Which IC50 does the source give for `CCCOc1c(OC)cc([C@H]2CC[C@H](c3cc(OC)c(OC)c(OC)c3)[C@@H]2OC)cc1C(N)=O` (relative stereo) [OCH3, (CO)NH2] here?
A: 124 nM and 47 nM

Q: For `CCCOc1c(Br)cc([C@@H]2CC[C@@H](c3cc(OC)c(OC)c(OC)c3)[C@H]2OC)cc1OC` (relative stereo) [OCH3, Br], which IC50 is on record?
A: 47 nM

Q: Which IC50 does the source give for `CCCOc1c(OC)cc([C@@H]2CC[C@@H](c3cc(OC)c(OC)c(OC)c3)[C@@H]2OC)cc1S(C)(=O)=O` (relative stereo) [OCH3, SO2 CH3] here?
A: 4.3 nM and 3.8 nM

Q: Which IC50 does the source give for `CCCOc1c(OC)cc([C@@H]2CC[C@@H](c3cc(OC)c(OC)c(OC)c3)[C@@H]2OC)cc1[S+](C)[O-]` (relative stereo) [OCH3, SOCH3] here?
A: 18 nM and 9.3 nM

Same assay, conditions: Table (B), at 300 nM, 0.3 µM

Q: For `CCCOc1c(OC)cc([C@@H]2CC[C@@H](c3cc(OC)c(OC)c(OC)c3)[C@@H]2O)cc1SC` (relative stereo) [OH, SCH3], which “PAF Receptor Binding Inhibition, Percent Inhibition” value is on record?
A: 38%

Same assay, conditions: Table (B), at 300 nM, read-out: PAF Receptor Binding Inhibition, Percent Inhibition

Q: With `CCCOc1c(OC)cc([C@@H]2CC[C@@H](c3cc(OC)c(OC)c(OC)c3)[C@@H]2O)cc1SC` (relative stereo) [OH, SCH3] as the compound, how does the inhibition at 0.3 µM read?
A: 23%

From US5132463A, “1,3-diaryl cyclopentanes and derivatives thereof as PAF antagonists” (Merck & Co., Inc., priority 1991, dated 1992)
